Laboratory results as given in US20230002334A1, “TRPM8 MODULATORS” (Givaudan SA, priority 2019, published 2023).
Read-outs that look alike come from different tables or passages of the source.

Key:
[1] = target: T1, hTRPM8 (Homo sapiens, UniProt Q7Z2W7); assay: Assay on TRPM8 modulators: calcium imaging (Fluo-4, Flexstation) in HEK293 cell line stably expressing hTRPM8; format: cell-based
T1 construct: expressed in transfected cells
Summary of the method: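 Calcium influx monitored by Fluo-4 (2.7 μM with […] probenecid, 1 h 37 °C loading) in HEK293 cells stably expressing hTRPM8, in HEPES buffer pH 7.4 with 2 mM CaCl2. Fluorescence read 15 s before and 105 s after adding serial compound dilutions. Maximal activation relative to solvent and 31.6 μM menthol; EC50 from sigmoidal fit.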

[2] = system: panelists (mouth, mucosa); assay: Sensory studies in aqueous solution (trained panel, swilling in the mouth); format: in vivo, human; conditions: 40 ppm in aqueous solution; for time of max cooling / Max. cooling: 20 mL swilled 60 seconds; for Max. cooling / Cooling after 1 h: averaged panel score on scale 0 to 10; for Cooling after 1 h: 1 h after swilling
Method: The compounds as listed below in Table 2 were dissolved at a concenteration of 1 wt-% in propylene glycol. These solutions were then dispensed in appropriate quantities into deionized water containing 0.5 wt-% Poloxamer 407 (which is a hydrophilic non-ionic surfactant, e.g., commercially available from SigmaAldrich) and 0.25 wt-% Cremaphor® RH40 (obtained from BASF) as solubilizer, to obtain the desired final concentration of 40 ppm (parts per milion) of the respective compound.
A trained group of panelists evaluated the aqueous solutions containing test compound by swilling 20 mL of the solution in the mouth for 60 seconds, followed by spitting, without rinsing the mouth afterwards for the duration of the evaluation. Panelists evaluated and recorded the cooling performance as well as other sensorial and organoleptic attributes at different timepoints over a period of two hours. Cooling performance was rated on a scale from 0 to 10 with 0 being no effect and 10 being freezing. Scores were averaged for all panelists and the cooling intensity qualified as “N” for “none” (score of 0), “L” for “low” (score above 0, up to 1), “M” for “medium” (score above 1, up to 4), “S” for “strong” (score above 4, up to 8) and “E” for “extreme” (score above 8), which are provided in Table 2. […] All tasted samples developed cooling sensation starting during swilling (almost immediately upon contact with the mucosa) and before expectorating.

[3] = system: panelists (mouth); assay: Sensory studies in model dentifrice (trained panel, tooth brushing); format: in vivo, human; conditions: 100 ppm in model unflavored dentifrice; for time of max cooling / Max. cooling: 1 g brushed 60 seconds; for Max. cooling / Cooling after 1 h: averaged panel score on scale 0 to 10; for Cooling after 1 h: 1 h after brushing
Method: The compounds listed in Table 3 were dissolved at a concenteration of 1 wt-% in propylene glycol. These solutions were then dispersed in appropriate quantities to obtain the desired final concentration of 100 ppm (parts per milion) of the test compound into a model, unflavored dentifrice, the formula of which is given below (ingredients obtained from the suppliers respectively indicated in parenthesis).
A trained group of panelists evaluated the dentifrice containing a compound of formula (I), by brushing their teeth with 1 g of the dentifrice using a toothbrush for 60 seconds, followed by spitting, without rinsing the mouth afterwards for the duration of the evaluation. Panelists evaluated and recorded the cooling performance as well as other sensorial and organoleptic attributes at different timepoints over a period of two hours. Cooling performance was rated on a scale from 0 to 10 with 0 being no effect and 10 being freezing. Scores were averaged for all panelists and the cooling intensity qualified as “N” for “none” (score of 0), “L” for “low” (score above 0, up to 1), “M” for “medium” (score above 1, up to 4), “S” for “strong” (score above 4, up to 8) and “E” for “extreme” (score above 8), which are summarized below in Table 3. […] All tasted samples developed cooling sensation starting during brushing, before expectorating.

[4] = HEK293 cells stably expressing hTRPM8, calcium influx, sigmoidal dose-response fit, read-out: EC50

T1 sequence (Q7Z2W7 whole entry): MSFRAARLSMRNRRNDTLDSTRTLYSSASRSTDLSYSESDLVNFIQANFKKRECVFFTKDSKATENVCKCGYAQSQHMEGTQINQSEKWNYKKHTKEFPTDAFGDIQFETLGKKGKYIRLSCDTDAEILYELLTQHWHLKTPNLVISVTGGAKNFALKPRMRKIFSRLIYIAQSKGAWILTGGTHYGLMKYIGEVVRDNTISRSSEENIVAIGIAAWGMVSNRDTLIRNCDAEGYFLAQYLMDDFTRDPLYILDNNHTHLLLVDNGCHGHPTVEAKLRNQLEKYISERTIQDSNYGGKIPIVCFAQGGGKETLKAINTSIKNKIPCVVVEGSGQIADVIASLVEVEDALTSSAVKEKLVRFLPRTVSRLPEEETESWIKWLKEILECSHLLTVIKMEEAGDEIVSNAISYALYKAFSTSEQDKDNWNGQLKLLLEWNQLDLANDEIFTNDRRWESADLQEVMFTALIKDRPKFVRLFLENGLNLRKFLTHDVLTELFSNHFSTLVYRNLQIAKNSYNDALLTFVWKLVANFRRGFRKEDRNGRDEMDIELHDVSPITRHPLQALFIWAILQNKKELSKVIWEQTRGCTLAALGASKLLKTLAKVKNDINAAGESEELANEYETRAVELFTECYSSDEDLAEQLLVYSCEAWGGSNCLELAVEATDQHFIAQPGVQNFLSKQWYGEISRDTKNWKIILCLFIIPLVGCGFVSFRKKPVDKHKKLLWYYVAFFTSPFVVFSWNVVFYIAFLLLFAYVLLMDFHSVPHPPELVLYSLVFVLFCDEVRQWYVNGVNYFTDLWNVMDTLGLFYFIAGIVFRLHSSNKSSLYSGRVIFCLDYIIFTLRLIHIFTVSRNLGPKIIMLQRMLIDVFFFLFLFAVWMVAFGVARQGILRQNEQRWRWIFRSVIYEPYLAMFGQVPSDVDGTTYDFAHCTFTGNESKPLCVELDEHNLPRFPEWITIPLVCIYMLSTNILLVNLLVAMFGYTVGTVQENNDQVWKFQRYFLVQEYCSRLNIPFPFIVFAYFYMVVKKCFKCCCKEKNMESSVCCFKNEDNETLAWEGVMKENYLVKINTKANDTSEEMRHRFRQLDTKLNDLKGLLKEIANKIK

| SMILES | EC50 [1, 4] [nM] | time of max cooling [2] [min] | Max. cooling [2] | Cooling after 1 h [2] | time of max cooling [3] [min] | Max. cooling [3] | Cooling after 1 h [3] | EC50 [1] [nM] |
| --- | --- | --- | --- | --- | --- | --- | --- | --- |
| C[C@H]1C[C@@](C)(c2ccc(F)cc2)C[C@@H]2[C@@H]1N(C)OC2(C)C (racemic) [Compound 102, rac-(3aR,5R,7S,7aR)-5-(4-fluorophenyl)-1,3,3,5,7-pentamethyloctahydrobenzo[c]isoxazole] | < 50 | 10 | S (“S” for “strong” (score above 4, up to 8)) | M (“M” for “medium” (score above 1, up to 4)) | 10 | M (“M” for “medium” (score above 1, up to 4)) | M (“M” for “medium” (score above 1, up to 4)) |  |
| CC(C)=CC[C@H]1C[C@@H]2[C@@H]([C@@H](C)C1)N(C)OC2(C)C (racemic) [Compound 50, rac-(3aR,5R,7S,7aR)-1,3,3,7-tetramethyl-5-(3-methylbut-2-en-1-yl)octahydrobenzo[c]isoxazole] |  | 10 | M (“M” for “medium” (score above 1, up to 4)) | M (“M” for “medium” (score above 1, up to 4)) |  |  |  | 50 to 300 |
| Cc1ccc(C#N)cc1[C@@]1(C)C[C@@H]2[C@@H]([C@@H](C)C1)N(C)OC2(C)C (stereo in doubt) [Compound 135, rac-4-methyl-3-((3aR,5R,7S,7aR)-1,3,3,5,7-pentamethyloctahydrobenzo[c]isoxazol-5-yl)benzonitrile] | < 50 | 10 | E (“E” for “extreme” (score above 8)) | M (“M” for “medium” (score above 1, up to 4)) | 5 | S (“S” for “strong” (score above 4, up to 8)) | M (“M” for “medium” (score above 1, up to 4)) |  |
| CCN1OC(C)(C)C2CC(CC=C(C)C)CC(C)C21 (racemic) [Compound 120, rac-(3aS,5S,7S,7aS)-1-ethyl-3,3,7-trimethy)-5-(3-methylbut-2-en-1-yl)octahydrobenzo[c]isoxazole] | 300 to 1000 | 10 | M (“M” for “medium” (score above 1, up to 4)) | L (“L” for “low” (score above 0, up to 1)) |  |  |  |  |
| CC1CC(C)C2C(C1)C(C)(C)ON2C (stereo not drawn) [Compound 4, 1,3,3,5,7-pentamethyloctahydrobenzo[c]isoxazole] | 1000 to 35000 | 3 | M (“M” for “medium” (score above 1, up to 4)) | L (“L” for “low” (score above 0, up to 1)) |  |  |  |  |
| CC1=CC[C@H](C2CCC3C(C2)N(C)OC3(C)C)CC1 (stereo partly drawn) [Compound 7, 1,3,3-trimethyl-6-((R)-4-methylcyclohex-3-en-1-yl)octahydrobenzo[c]isoxazole] | 300 to 1000 | 10 | M (“M” for “medium” (score above 1, up to 4)) | L (“L” for “low” (score above 0, up to 1)) |  |  |  |  |
| C[C@H]1C[C@@](C)(c2ccccc2)C[C@@H]2[C@@H]1N(C)OC2(C)C (racemic) [Compound 48, rac-(3aR,5R,7S,7aR)-1,3,3,5,7-pentamethyl-5-phenyloctahydrobenzo[c]isoxazole] | 50 to 300 | 10 | S (“S” for “strong” (score above 4, up to 8)) | M (“M” for “medium” (score above 1, up to 4)) | 5 | M (“M” for “medium” (score above 1, up to 4)) | L (“L” for “low” (score above 0, up to 1)) |  |
| CCC[C@@H]1CC[C@@H]2[C@@H](C1)C(C)(C)ON2C(C)C (racemic) [Compound 26, rac-(3aR,5R,7aR)-1-isopropyl-3,3-dimethyl-5-propyloctahydrobenzo[c]isoxazole] | 300 to 1000 | 10 | S (“S” for “strong” (score above 4, up to 8)) | M (“M” for “medium” (score above 1, up to 4)) |  |  |  |  |
| Cc1ccccc1[C@@]1(C)C[C@@H]2[C@@H]([C@@H](C)C1)N(C)OC2(C)C (racemic) [Compound 46, rac-(3aR,5R,7S,7aR)-1,3,3,5,7-pentamethyl-5-(o-tolyl)octahydrobenzo[c]isoxazole] | < 50 | 10 | S (“S” for “strong” (score above 4, up to 8)) | M (“M” for “medium” (score above 1, up to 4)) | 20 | S (“S” for “strong” (score above 4, up to 8)) | M (“M” for “medium” (score above 1, up to 4)) |  |
| COc1ccccc1[C@H]1C[C@@H]2[C@@H]([C@@H](C)C1)N(C)OC2(C)C (racemic) [Compound 83, rac-(3aR,5R,7S,7aR)-5-(2-methoxyphenyl)-1,3,3,7-tetramethyloctahydrobenzo[c]isoxazole] | < 50 | 10 | S (“S” for “strong” (score above 4, up to 8)) | L (“L” for “low” (score above 0, up to 1)) |  |  |  |  |
| CC(C)=CCC1(C)CC(C)C2C(C1)C(C)(C)ON2C (stereo not drawn) [Compound 1, 1,3,3,5,7-pentamethyl-5-(3-methylbut-2-en-1-yl)octahydrobenzo[c]isoxazole] | 300 to 1000 | 20 | M (“M” for “medium” (score above 1, up to 4)) | M (“M” for “medium” (score above 1, up to 4)) |  |  |  |  |
| CC1CC(C)C2C(C1)C(C)(C)ON2C(C)C (stereo not drawn) [Compound 12, 1-isopropyl-3,3,5,7-tetramethyloctahydrobenzo[c]isoxazole] | 300 to 1000 | 5 | M (“M” for “medium” (score above 1, up to 4)) | L (“L” for “low” (score above 0, up to 1)) |  |  |  |  |
